Assay results: ChEMBL document CHEMBL5727678, “CARM1 inhibitors and uses thereof” (2020)

Assay: Enzyme Assay: The assays were all performed in a buffer consisting of 20 mM Bicine (pH=7.6), 1 mM TCEP, 0.005% BSG, and 0.002% Tween 20, prepared on the day of use. Compounds in 100% DMSO (1 ul) were spotted into a polypropylene 384-well V-bottom plates using a Platemate Plus outfitted with a 384-channel head . DMSO (1 ul) was added to Columns 11, 12, 23, 24, rows A-H for the maximum signal control and 1 ul of SAH, a known product and inhibitor of CARM1, was added to columns 11, 12, 23, 24, rows I-P for the minimum signal control. A cocktail (40 ul) containing the CARM1 enzyme was added by Multidrop Combi. The compounds were allowed to incubate with CARM1 for 30 min at room temperature, then a cocktail (10 ul) containing 3H-SAM and peptide was added to initiate the reaction (final volume=51 ul). The final concentrations of the components were as follows: CARM1 was 0.25 nM, 3H-SAM was 30 nM, peptide was 250 nM, SAH in the minimum signal control wells was 1 mM, and the DMSO concentration was 2%. The assays were stopped by the addition of non-radiolabeled SAM (10 ul) to a final concentration of 300 uM, which dilutes the 3H-SAM to a level where its incorporation into the peptide substrate is no longer detectable. 50 ul of the reaction in the 384-well polypropylene plate was then transferred to a 384-well Flashplate and the biotinylated peptides were allowed to bind to the streptavidin surface for at least 1 hour before being washed once with 0.1% Tween20 in a Biotek ELx405 plate washer.

IC50 [µM]	SMILES
< 0.1	CNC[C@@H](O)COc1ccc(Cl)c(-c2nc(-c3c(C)noc3C)c(C)c(N3Cc4c(C)nn(C)c4C3)n2)c1
< 0.1	CNCC(O)COc1cccc(-c2nc(-c3c(C)noc3C)c(C)c(N3CCO[C@H](CNC)C3)n2)c1 (stereo partly drawn)
< 0.1	CNCC(O)COc1cccc(-c2nc(-c3c(C)noc3C)cc(N3C[C@@H]4C[C@H]3CN4C(=O)OC)n2)c1 (stereo partly drawn)
